# Assay: Empiric porcine aortic contrast enhancement, dynamic CT at fixed mid-abdominal aortic level after i.v. injection
# Assay type: in vivo, pig
# Procedure: In order to test the mathematical solutions, a porcine study was conducted. All animal care and procedures performed were approved by the Institutional Animal Study Committee. […] Each session was separated by at least two days. Two pigs had all their sessions within a week, while the other two pigs had their first two and last sessions delays 4-5 weeks, which results in an increase in their weight to 35-40 kg in their last session. In each session, the pig was anesthetized, intubated, and underwent scanning for three or four sets of images obtained in random order. During scanning, each pig was ventilated with oxygen and low tidal volume to minimize breathing motion artifact. […] Each set of scans were 45-60 minutes apart to minimize the effect of prior contrast administration. All CT scanning was performed with a Somatom Plus-S scanner (Siemens Medical Systems, […].) using a one-second scanning time and a one-second interscan delay. Three types of injection schemes were tested: uniphasic, biphasic, and multiphasic. Biphasic injections were performed by a prior art power injector which was used in routine clinical CT scanning while uniphasic and multiphasic injections were conducted with a power injector which was invented for achieving the required protocols. This power injector was capable of delivering contrast medium in various uniphasic or multiphasic injection algorithms, as is explained in greater detail below. The multiphasic injection rate is determined by an initial injection rate and an exponential decay coefficient, as shown in FIG. 3. […] Most injections were performed with the initial injection rate of 2 mL/s. […] Three differential exponential decay coefficients (0.007, 0.017, 0.026) were tested. […] These were the three smallest discrete increments allowed in the prototype of the inventive power injector. Decay coefficient higher than 0.03 was not used because it was evident that a further increase in the coefficient would deviate further away from uniform vascular enhancements. A uniphasic injection was determined as being equivalent to a zero exponential decay coefficient where the injection rate remains constant at an initial injection rate throughout the injection duration. […] Approximately half of the total contrast volume was injected in each phase of the biphasic injections. […] Attenuation values of the aorta were measured from post-contrast scans (at the same level as the pre-contrast scans) using a circular region of interest (ROI) at the center of the aorta. Contrast enhancement was calculated as the absolute different in attenuation value between the pre- and post-contrast scans. For the data analysis, the injection duration (ID), the magnitude of peak aortic enhancement (PA), and the uniformity of enhancement (the duration of the enhancement achieved with 90% of the peak: 90% DCE) were evaluated. Means and standard deviations were also computed. The results are now explained.
# [1] = 25 kg pig, 50 mL of 282 mgI/mL contrast medium, uniphasic 2 mL/sec
# [2] = four pigs, 50 mL, 2 mL/s initial injection rate, decay constant 0.017
# [3] = four pigs, 70 mL, 2 mL/s initial injection rate, decay constant 0.017
smiles,measurement,setting,value
"CNC(=O)c1c(I)c(NC(C)=O)c(I)c(C(=O)O)c1I.CNC[C@H](O)[C@@H](O)[C@H](O)[C@H](O)CO [contrast medium, iothalmate meglumine]",magnitude of the peak aortic enhancement (empiric),[1],250 HU
same,time to the peak aortic enhancement (empiric),[1],26 s
same,"pattern of aortic enhancement, multiphasic vs uniphasic injection","50 mL and 70 mL, 2 mL/s, decay constant 0.017",more prolonged and uniform vascular enhancement than uniphasic injections
same,"pattern of aortic enhancement, biphasic injection","70 mL, 2 mL/s for 17 sec then 1.0 mL/s for 36 sec",two enhancement peaks with a valley in between
same,"increase of 90% DCE (duration of enhancement achieved with 90% of the peak), multiphasic vs uniphasic injection, mean",[2],81%
same,"reduction of peak aortic enhancement (PA), multiphasic vs uniphasic injection, mean",[2],19%
same,"decrease of peak aortic enhancement (PA), multiphasic vs uniphasic injection",[3],18%
same,"increase of 90% DCE, multiphasic vs uniphasic injection",[3],94%
same,"pattern of aortic enhancement, multiphasic exponential injection, decay constant 0.017","two pigs (25 kg, 40 kg), compared with decay constants 0.007 and 0.026",more uniform than with other injection protocols

# — US6470889B1 (B.H.B., L.C., priority 1999, dated 2002)
